From US7770577B2, “Methods and devices for treating lung dysfunction” (priority 2001, dated 2010)
Read-outs that look alike come from different tables or passages of the source.

Assays:
[1] = tested on: P. aeruginosa
Experimental: (§1) Bacteria were collected in the stationary phase of growth and further diluted in LB broth to 5-6×10^4/ml. After adding glycerol to 15%, aliquots of bacteria were stored at −80° C.
(§2) Cultures of non-CF and CF airway epithelial cells were matched with regard to passage number, days in culture, and days at the air liquid interface. At least 24 h prior to the experiments, basolateral media of some cultures were supplemented with 100 μM KSCN. The apical surfaces of the cultures were washed with 0.25 ml PBS and the washes were pooled and stored at −20° C. […] Control experiments were performed using only PBS adjusted to pH 5.7. […] Mixtures were sampled immediately and 4 h after incubation at room temperature and CFU were determined by plating on LB Agar. Antibacterial activity was expressed as a ratio of CFU after 4 h to the starting CFU in the sample to control for slight differences in the starting number of bacteria.

[2] = tested on: Pseudomonas aeruginosa (ATCC 27853); experiment: Antibacterial assay of LPO system components in PBS pH 5.7 (control experiments); format: cell-based; settings: 1.125 μg/ml LPO, 10^−5 M H2O2 or 5×10^−4 M SCN− added singly or in pairs
Experimental: as §1, §2

[3] = tested on: Pseudomonas aeruginosa (ATCC 27853); experiment: LPO-dependent antibacterial activity of human airway secretions; format: cell-based
Experimental: Human airway secretions were obtained from intubated patients undergoing ambulatory outpatient elective surgery according to IRB approved protocols. Patients were selected for not having respiratory disease. Saline (3 ml) was injected into the tracheal tube and immediately suctioned into a trap. Recovered secretions were spun at 16,000 rpm for 20 min. at 4° C. The supernatant was aliquoted and stored at −80° C. for later analysis. Undiluted secretions were obtained from acutely (<24 h) intubated patients in the medical ICU who were intubated for reasons other than respiratory disease. Selected patients had no clinical signs of respiratory infection. Secretions were cleared by centrifugation (100,000×g, 30 min), aliquoted, and stored at −80° C.
as §1, §2
It is unlikely that H2O2 would continue to be produced in secretions after collection since its source is thought to be cellular in origin. For this reason, secretions were supplemented with 10^−5 M H2O2.

[4] = tested on: P. aeruginosa; experiment: LPO dependent killing with bovine milk LPO at pH 5.7, 6.2 and 6.8; format: cell-based, Pseudomonas aeruginosa; settings: dapsone 10^−3 M; salicyl hydroxamic acid 10^−4 M
Source text: (§5) Concentrations of the LPO system components were selected to be within the measured ranges in human airways.

[5] = tested on: Burkholderia cepacia; experiment: as above; format: cell-based; settings: dapsone 10^−3 M; salicyl hydroxamic acid 10^−4 M
Source text: as §5

[6] = tested on: CF airway epithelial cell cultures; experiment: SCN− efflux in CF airway epithelial air-liquid interface cultures; format: cell-based, human; settings: for effect on SCN^− efflux: CF cells
Experimental: (§3) J. Respir. […] Experiments comparing non-CF and CF cells were performed with cultures grown simultaneously and matched in passage number, the number of cells plated, and days in culture. […] To initiate experiments, apical surfaces of the cultures were rapidly washed three times with Dulbecco's PBS (50 μl for 6.5 mm filters or 500 μl for 24 mm filters) containing 100 μM amiloride. Following a third wash, additional aliquots were placed on the apical surface for sequential 2 min incubations at 37° C. in humidified 5% CO2.
(§4) Bronchial epithelial cells were obtained from either CF or non-CF lungs at the time of transplant or organ donation. Cells were passaged twice (thereby de-differentiated) and then cultured at an air-liquid interface for re-differentiation. […] J. Respir. […] Following three rapid PBS washes of the apical surface, additional PBS aliquots were placed on the apical surface for sequential 2 min incubations. […] Airway epithelial cell cultures from three separate CF patients were compared to three non-CF control cultures.

[7] = tested on: non-CF airway epithelial cell cultures; experiment: SCN− efflux / apical accumulation in non-CF airway epithelial air-liquid interface cultures; format: cell-based, human
Experimental: as §3, §4

[8] = tested on: human airway epithelia; experiment: Apical H2O2 production by airway epithelial ALI cultures (fluorometric horseradish peroxidase micro-assay); format: cell-based
Experimental: Reverse transcription-polymerase chain reaction (RT-PCR) was performed with primers designed to detect any mammalian NADPH oxidase capable of producing H2O2 through superoxide intermediate.
Since the predicted molecular structure of Duox1 and 2 identified an intracellular loop containing 2 EF-hand calcium-binding motifs, the Ca^2+ stimulated H2O2 production was assessed. ALI cultures were stimulated for one hour with Thapsigargin (1 μM), an inhibitor of the endoplasmic reticulum calcium ATPase pump that increases intracellular Ca^2+. […] In this assay, the cells were incubated for one hour with either DPI alone or in combination with thapsigargin (1 μM).

[9] = cited from earlier work
[10] = PBS pH 5.7, 4 h room temperature, H2O2 10^−5 M or dapsone 10^−3 M, mean±SE, n=6
[11] = long-term daily aerosol administration

N#CS [SCN^−, thiocyanate]
antibacterial activity in culture washes ([1]; LPO/H2O2 supplemented washes from CF cultures grown with basolateral SCN− (100 μM)): no detectable LPO-dependent effect | antibacterial activity in culture washes ([1]; LPO/H2O2 supplemented washes from non-CF cultures grown with basolateral SCN− (100 μM)): LPO-dependent killing of bacteria | antibacterial activity in culture washes ([1]; exogenous SCN− (0.5 mM) added to CF culture washes): generated antibacterial activity | antibacterial activity in culture washes ([1]; exogenous SCN− (0.5 mM) added to non-CF culture washes): increased the LPO dependent activity | growth of bacteria [2]: not affected

Nc1ccc(S(=O)(=O)c2ccc(N)cc2)cc1 [dapsone]
cell growth (ratio of CFU after 4 h to starting CFU) [3, 10]: 1.9±0.3 | cell growth (ratio of CFU after 4 h to starting CFU) ([3]; airway secretions with 10^−5 M H2O2 plus dapsone, n=6, p<0.05 vs no dapsone): 1.68±0.31 | effect of peroxidase inhibitor on LPO system antibacterial activity [4]: inhibited | effect of peroxidase inhibitor on LPO system antibacterial activity [5]: inhibited

CCCC(=O)Nc1ncnc2c1ncn2[C@@H]1O[C@@H]2COP(=O)(O)O[C@H]2[C@H]1OC(=O)CCC [dibutryl cAMP]
SCN^− efflux after stimulation of PKA ([6]; CF cultures, dibutryl cAMP (0.5 mM) and forskolin (10 μM) together): did not | SCN^− efflux after stimulation of PKA ([7]; non-CF cultures, dibutryl cAMP (0.5 mM) and forskolin (10 μM) together): increase in efflux

C/C=C(/C)C(=O)O[C@H]1C(C)=C2[C@H]([C@@H]1OC(=O)CCCCCCC)[C@@](C)(OC(C)=O)C[C@H](OC(=O)CCC)[C@@]1(O)[C@H]2OC(=O)[C@@]1(C)O [thapsigargin, Thapsigargin]
apical H2O2 produced ([8]; ALI cultures stimulated one hour with thapsigargin 1 μM (baseline 59±16)): 128±17 H2O2 pmoles/hr

CC(C)Cc1ccc(C(C)C(=O)O)cc1 (stereo not drawn) [ibuprofen]
rate of lung inflammation ([9]; children with CF, four-year study, high doses): reduced the rate of lung inflammation

COc1ccc(Cl)cc1C(=O)NCCc1ccc(S(=O)(=O)NC(=O)NC2CCCCC2)cc1 [glibenclamide]
effect on SCN^− efflux [6]: neither glibenclamide nor DIDS had any effect | reversibility of inhibition of SCN^− efflux ([7]; non-CF cells): reversible | block of PKA-stimulated and baseline SCN^− efflux ([7]; non-CF cells, glibenclamide 500 μM): blocked

c1ccc2c(c1)[I+]c1ccccc1-2 [DPI, Diphenyleneiodonium]
apical H2O2 production ([8]; 1 μM DPI in combination with thapsigargin (1 μM), one hour): 45±19 H2O2 pmoles/hr

OO [H2O2, hydrogen peroxide]
cell growth (ratio of CFU after 4 h to starting CFU) [3, 10]: 1.9±0.3 | cell growth (ratio of CFU after 4 h to starting CFU) ([3]; bacteria in airway secretions of six patients in presence of 10^−5 M H2O2, n=6): 0.98±0.16 | antibacterial activity in culture washes ([1]; H2O2 10^−5 M alone or with LPO, washes from cells cultured without basolateral SCN−): did not alone or with LPO, give rise to any antibacterial activity | growth of bacteria [2]: not affected

lactoperoxidase [LPO]
growth of bacteria [2]: not affected

O=S(=O)(O)c1cc(N=C=S)ccc1C=Cc1ccc(N=C=S)cc1S(=O)(=O)O [DIDS, 4,4′-diisothiocyanostilbene-2,2′disulphonic acid]
effect on SCN^− efflux [6]: neither glibenclamide nor DIDS had any effect

B1: Pulmozyme®: mucus-thinning drug, a DNAse (recombinant human deoxyribonuclease) (protein, UniProt P24855 23-282, looked up)
Deoxyribonuclease-1: LKIAAFNIQTFGETKMSNATLVSYIVQILSRYDIALVQEVRDSHLTAVGKLLDNLNQDAPDTYHYVVSEPLGRNSYKERYLFVYRPDQVSAVDSYYYDDGCEPCGNDTFNREPAIVRFFSRFTEVREFAIVPLHAAPGDAVAEIDALYDVYLDVQEKWGLEDVMLMGDFNAGCSYVRPSQWSSIRLWTSPTFQWLIPDSADTTATPTHCAYDRIVVAGMLLRGAVVPDSALPFNFQAAYGLSDQLAQAISDHYPVEVMLK
lung function ([9]; clinical trials, people with CF): improved lung function | number of respiratory infections ([9]; clinical trials): reduced the number of respiratory infections | frequency of severe respiratory tract exacerbations [9, 11]: decrease the frequency of severe respiratory tract exacerbations | rate of decline in pulmonary function [9, 11]: slow the rate of decline in pulmonary function
